Assay results taken from publication PMC8237267 (Journal of Medicinal Chemistry, 2021).
pIC50: −log10 of the molar value. “And” between values parts separate entries of the source, which are not always exact repeats. Equal values may be shown once. Read-outs that look alike come from different tables or passages of the source.

Tests used:
[1] = biological target: T1, HDAC3 (Homo sapiens, UniProt O15379); experiment: HDAC EMSA activity assay (Nanosyn); assay type: biochemical; conditions: recombinant enzyme, read-out: In vitro IC50 HDAC3
T1 construct: The full-length human HDACs were recombinantly expressed and purified from SF9 insect cells; host or cells: SF9 insect cells
T1 sequence (O15379 whole entry): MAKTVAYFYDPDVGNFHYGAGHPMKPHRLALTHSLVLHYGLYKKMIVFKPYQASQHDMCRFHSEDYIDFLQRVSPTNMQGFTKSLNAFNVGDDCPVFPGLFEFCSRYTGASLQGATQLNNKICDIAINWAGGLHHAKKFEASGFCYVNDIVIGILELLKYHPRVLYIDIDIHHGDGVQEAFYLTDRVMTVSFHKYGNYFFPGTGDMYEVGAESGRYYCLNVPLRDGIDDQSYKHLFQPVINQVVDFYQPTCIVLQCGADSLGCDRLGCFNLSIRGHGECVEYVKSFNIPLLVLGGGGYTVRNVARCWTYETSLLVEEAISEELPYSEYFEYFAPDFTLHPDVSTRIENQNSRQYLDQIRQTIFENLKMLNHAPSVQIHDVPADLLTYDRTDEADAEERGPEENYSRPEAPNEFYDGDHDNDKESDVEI
T1 sequence (Q9Y618 395-489 partner limits assumed): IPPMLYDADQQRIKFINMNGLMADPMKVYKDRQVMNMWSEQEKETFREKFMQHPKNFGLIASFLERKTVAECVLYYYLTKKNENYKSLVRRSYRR

[2] = biological target: T2, HDAC8 (Homo sapiens, UniProt Q9BY41); experiment: HDAC EMSA activity assay (Nanosyn); assay type: biochemical; conditions: for pIC50: recombinant enzyme, EMSA (Nanosyn), read-out: In vitro IC50 HDAC8
T2 construct: The full-length human HDACs were recombinantly expressed and purified from SF9 insect cells; host or cells: SF9 insect cells
T2 sequence (Q9BY41 1-377): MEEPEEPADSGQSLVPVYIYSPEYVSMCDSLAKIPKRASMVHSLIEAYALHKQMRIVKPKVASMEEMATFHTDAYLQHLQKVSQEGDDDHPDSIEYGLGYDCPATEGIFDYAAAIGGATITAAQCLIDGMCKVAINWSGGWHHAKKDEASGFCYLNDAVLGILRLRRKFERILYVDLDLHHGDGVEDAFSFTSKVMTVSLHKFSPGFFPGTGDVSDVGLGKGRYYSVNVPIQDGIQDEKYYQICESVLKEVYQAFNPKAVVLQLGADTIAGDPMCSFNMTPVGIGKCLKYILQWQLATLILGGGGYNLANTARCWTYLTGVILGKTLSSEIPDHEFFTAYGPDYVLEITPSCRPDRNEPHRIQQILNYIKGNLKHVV

[3] = biological target: T3, HDAC11 (Homo sapiens, UniProt Q96DB2); experiment: HDAC EMSA activity assay (Nanosyn); assay type: biochemical; conditions: recombinant enzyme, read-out: In vitro IC50 HDAC11
T3 construct: The full-length human HDACs were recombinantly expressed and purified from SF9 insect cells; host or cells: SF9 insect cells
T3 sequence (Q96DB2 1-347): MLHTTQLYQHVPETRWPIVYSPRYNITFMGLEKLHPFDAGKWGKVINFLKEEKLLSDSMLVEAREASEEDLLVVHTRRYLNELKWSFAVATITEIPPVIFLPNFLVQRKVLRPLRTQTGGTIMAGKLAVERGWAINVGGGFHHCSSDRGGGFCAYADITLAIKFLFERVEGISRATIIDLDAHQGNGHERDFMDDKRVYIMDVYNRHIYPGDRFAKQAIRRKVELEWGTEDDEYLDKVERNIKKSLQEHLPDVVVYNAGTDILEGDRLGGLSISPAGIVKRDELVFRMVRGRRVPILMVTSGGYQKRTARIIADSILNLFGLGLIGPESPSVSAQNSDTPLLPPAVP

[4] = system: MV4-11; experiment: Cytotoxicity assay (Cell Titer-Blue, 72 h); assay type: cell-based; conditions: for pIC50: Homo sapiens
[5] = system: MRC-9; experiment: Cytotoxicity assay (Cell Titer-Blue, 72 h); assay type: cell-based
[6] = biological target: T4, HDAC6 (Homo sapiens, UniProt Q9UBN7); experiment: HDAC EMSA activity assay (Nanosyn); assay type: biochemical; design: The full-length human HDACs were recombinantly expressed and purified from SF9 insect cells; host or cells: SF9 insect cells; conditions: for HDAC6 fold-selectivity: over the next closest HDAC isoform tested, * = selectivity ≥ indicated value; for pIC50: EMSA (Nanosyn)
T4 sequence (Q9UBN7 1-1215): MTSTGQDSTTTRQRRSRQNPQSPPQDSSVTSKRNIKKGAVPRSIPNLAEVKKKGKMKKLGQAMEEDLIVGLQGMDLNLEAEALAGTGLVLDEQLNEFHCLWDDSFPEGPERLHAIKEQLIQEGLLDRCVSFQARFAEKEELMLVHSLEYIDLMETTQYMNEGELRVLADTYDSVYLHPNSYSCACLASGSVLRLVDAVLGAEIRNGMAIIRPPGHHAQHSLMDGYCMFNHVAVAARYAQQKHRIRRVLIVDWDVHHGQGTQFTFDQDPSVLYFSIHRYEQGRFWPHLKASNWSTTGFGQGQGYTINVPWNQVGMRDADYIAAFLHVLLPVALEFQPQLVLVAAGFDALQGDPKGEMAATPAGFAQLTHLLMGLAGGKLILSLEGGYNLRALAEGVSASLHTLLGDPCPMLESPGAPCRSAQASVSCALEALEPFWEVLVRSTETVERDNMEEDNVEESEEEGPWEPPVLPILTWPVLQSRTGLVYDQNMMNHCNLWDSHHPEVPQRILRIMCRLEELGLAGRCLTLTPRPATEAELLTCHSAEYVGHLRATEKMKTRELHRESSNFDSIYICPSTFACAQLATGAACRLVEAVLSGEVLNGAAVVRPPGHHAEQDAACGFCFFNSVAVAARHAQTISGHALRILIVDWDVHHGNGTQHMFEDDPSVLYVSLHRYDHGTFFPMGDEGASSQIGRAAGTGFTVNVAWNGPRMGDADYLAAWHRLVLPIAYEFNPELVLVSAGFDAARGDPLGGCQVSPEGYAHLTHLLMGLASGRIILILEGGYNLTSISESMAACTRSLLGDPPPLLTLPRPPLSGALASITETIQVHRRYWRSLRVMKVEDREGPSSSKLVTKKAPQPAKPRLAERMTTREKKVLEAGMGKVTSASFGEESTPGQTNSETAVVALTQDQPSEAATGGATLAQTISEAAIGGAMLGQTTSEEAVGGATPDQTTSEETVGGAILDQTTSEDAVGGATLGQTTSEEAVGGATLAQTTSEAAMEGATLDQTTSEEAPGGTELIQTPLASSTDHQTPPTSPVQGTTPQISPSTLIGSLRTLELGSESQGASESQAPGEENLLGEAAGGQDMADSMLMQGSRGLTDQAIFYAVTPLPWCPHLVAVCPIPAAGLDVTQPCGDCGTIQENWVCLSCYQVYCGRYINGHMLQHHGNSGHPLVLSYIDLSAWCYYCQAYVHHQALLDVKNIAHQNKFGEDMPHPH

[7] = Glutathione stability / reactivity assay; assay type: in vitro ADME; conditions: GSH adduct formation by LC/MS/MS; KT-531 up to 24 h
Experimental: Although covalent modification of HDAC6 was not observed (Figure S2), the PFBS group is susceptible to nucleophilic aromatic substitution by biological nucleophiles. A previously described high-throughput in vitro glutathione-reactivity assay was conducted, where compounds were incubated in the presence of glutathione (GSH) and the formation of a GSH-compound adduct was monitored over time via LC/MS/MS.[50]
Compound was added to PBS and 5 mM GSH to reach a final concentration of 5 μM. […] Samples were vortexed and centrifuged for 45 min at 3220g. Aliquots were diluted by ultrapure water, and used for LC/MS/MS analysis. Peak area ratios were determined and percent compounds remaining was calculated by the following equation: [drawing 1] where peak area ratio (t min) is the peak area ratio of control and test compounds at t min; peak area ratio0min is the peak area ratio of control and test compounds at the zero time point. In vitro half-life (t1/2) = −(0.693/k).

[8] = MV4-11 (AML), read-out: In cellulo IC50 MV4-11
[9] = MRC9, MRC-9 (healthy fibroblasts), read-out: In cellulo IC50 MRC-9
[10] = recombinant enzyme, read-out: In vitro IC50 HDAC6

O=C(NO)c1ccc(CN(C2CC2)S(=O)(=O)c2cc(F)c(F)c(F)c2)cc1 [Compound 8, 4-(((N-Cyclopropyl-3,4,5-trifluorophenyl)sulfonamido)methyl)-N-hydroxybenzamide]
pIC50 [1]: < 6.00
pIC50 [2]: 6.56
pIC50 [3]: < 6.00
pIC50 [4, 8]: 5.22
pIC50 [5, 9]: < 4.60
HDAC6 fold-selectivity [6]: 20 fold and 19.5 fold
pIC50 [6, 10]: 7.85

CC(C)N(Cc1ccc(C(=O)NO)cc1)S(=O)(=O)c1c(F)c(F)c(F)c(F)c1F [Compound 4, N-Hydroxy-4-(((2,3,4,5,6-pentafluoro-N-isopropylphenyl)sulfonamido)methyl)benzamide]
pIC50 [1]: 6.03
pIC50 [2]: 6.19
pIC50 [3]: 6.03
pIC50 [5, 9]: < 5.00
reactivity with glutathione [7]: react readily with glutathione
pIC50 [6, 10]: 8.40

O=C(NO)c1cccc(CN(C2CC2)S(=O)(=O)c2c(F)c(F)c(F)c(F)c2F)c1 [Compound 10, 3-(((N-Cyclopropyl-2,3,4,5,6-pentafluorophenyl)sulfonamido)methyl)-N-hydroxybenzamide]
pIC50 [1]: < 6.00
selectivity toward HDAC8 [2]: 4 fold
pIC50 [2]: 6.97
pIC50 [3]: < 6.00
pIC50 [4, 8]: 5.72
pIC50 [5, 9]: < 4.30
pIC50 [6, 10]: 6.31

O=C(NO)c1ccc(CNS(=O)(=O)c2c(F)c(F)c(F)c(F)c2F)cc1 [Compound 2, N-Hydroxy-4-(((perfluorophenyl)sulfonamido)methyl)benzamide]
pIC50 [1]: < 6.00
pIC50 [2]: < 6.00
pIC50 [3]: < 6.00
pIC50 [5, 9]: < 4.60
pIC50 ([6]; read-out: IC50 HDAC6): 6.41

O=C(CCCCCCNC(=O)c1cnc(N(c2ccccc2)c2ccccc2)nc1)NO [Ricolinostat, reference compound]
pIC50 ([4]; MV4-11, read-out: In cellulo IC50 MV4-11): 6.09
pIC50 ([5]; MRC9, read-out: In cellulo IC50 MRC-9): < 4.70

O=C(NO)c1ccc(CN(C2CC2)S(=O)(=O)c2c(F)cc(F)cc2F)cc1 [Compound 9, 4-(((N-Cyclopropyl-2,4,6-trifluorophenyl)sulfonamido)methyl)-N-hydroxybenzamide]
pIC50 [1]: < 6.00
pIC50 [2]: 6.50
pIC50 [3]: < 6.00
pIC50 [4, 8]: 5.05
pIC50 [5, 9]: < 4.70
HDAC6 fold-selectivity [6]: 39.4 fold
pIC50 [6, 10]: 8.10

CCCCN(Cc1ccc(C(=O)NO)cc1)C(=O)Nc1ccccc1 [Nexturastat, reference compound]
pIC50 [4, 8]: 5.77

O=C(NO)c1ccc(CN(C2CC2)S(=O)(=O)c2c(F)c(F)c(Cl)c(F)c2F)cc1 [Compound 13, 4-(((4-Chloro-N-cyclopropyl-2,3,5,6-tetrafluorophenyl)sulfonamido)methyl)-N-hydroxybenzamide]
pIC50 [1]: < 6.00
pIC50 [2]: < 6.00
pIC50 [3]: < 6.00
pIC50 [4, 8]: 5.86
pIC50 [5, 9]: < 4.52
pIC50 ([6]; read-out: IC50 HDAC6): 7.15
HDAC6 fold-selectivity [6]: 14.3 fold and ≥ 14.3* fold

O=C(NO)c1ccc(CN(C2CC2)S(=O)(=O)c2c(F)cc(F)c(Cl)c2F)cc1 [Compound 12, 4-(((3-Chloro-N-cyclopropyl-2,4,6-trifluorophenyl)sulfonamido)methyl)-N-hydroxybenzamide]
pIC50 [1]: < 6.00
pIC50 [2]: 6.70
pIC50 [3]: < 6.00
pIC50 [4, 8]: 6.13
pIC50 [5, 9]: < 4.70
HDAC6 fold-selectivity [6]: 22.3 fold
pIC50 [6, 10]: 8.05

COc1ccc(Cn2ccc3ccc(C(=O)NO)cc32)cc1 [PCI-34051, reference compound]
activity in MV4-11 cells [4]: no observable activity
activity in MRC9 cells [5]: no observable activity

CN(Cc1ccc(C(=O)NO)cc1)S(=O)(=O)c1c(F)c(F)c(F)c(F)c1F [Compound 3, N-Hydroxy-4-(((2,3,4,5,6-pentafluoro-N-methylphenyl)sulfonamido)methyl)benzamide]
pIC50 [2]: 6.74
pIC50 [3]: 6.61
pIC50 [5, 9]: < 4.52
reactivity with glutathione [7]: react readily with glutathione
pIC50 [6, 10]: 8.70

O=C(NO)c1ccc(CN(C2CC2)S(=O)(=O)c2ccc(F)cc2)cc1 [Compound 7, 4-(((N-Cyclopropyl-4-fluorophenyl)sulfonamido)methyl)-N-hydroxybenzamide]
pIC50 [1]: 6.08
pIC50 [2]: 6.55
pIC50 [3]: < 6.00
pIC50 [4, 8]: 5.06
pIC50 [5, 9]: < 4.30
HDAC6 fold-selectivity [6]: 25.5 fold
pIC50 [6, 10]: 7.96

O=C(NO)c1ccc(CN(C2CC2)S(=O)(=O)c2c(F)c(Cl)c(F)c(Cl)c2F)cc1 [Compound 11, 4-(((3,5-Dichloro-N-cyclopropyl-2,4,6-trifluorophenyl)sulfonamido)methyl)-N-hydroxybenzamide]
pIC50 [1]: < 6.00
pIC50 [2]: 6.67
pIC50 [3]: 6.44
pIC50 [4, 8]: 6.17
pIC50 [5, 9]: < 4.30
HDAC6 fold-selectivity [6]: 14.3 fold
pIC50 [6, 10]: 7.82
